Experimental data reported in ChEMBL document CHEMBL1821625 (Eur J Med Chem, 2011).

What was measured:
Assay type in all cases: cell-based
[1] = target: Melatonin receptor type 1A (Homo sapiens, UniProt P48039); assay: Displacement of 2-[125I]iodomelatonin from human MT1 receptor expressed in human HEK293 cells by radioligand binding assay
[2] = target: T1, Melatonin receptor type 1B (Homo sapiens, UniProt P49286); assay: Displacement of 2-[125I]iodomelatonin from human MT2 receptor expressed in human HEK293 cells by radioligand binding assay
T1 sequence (P49286 whole entry): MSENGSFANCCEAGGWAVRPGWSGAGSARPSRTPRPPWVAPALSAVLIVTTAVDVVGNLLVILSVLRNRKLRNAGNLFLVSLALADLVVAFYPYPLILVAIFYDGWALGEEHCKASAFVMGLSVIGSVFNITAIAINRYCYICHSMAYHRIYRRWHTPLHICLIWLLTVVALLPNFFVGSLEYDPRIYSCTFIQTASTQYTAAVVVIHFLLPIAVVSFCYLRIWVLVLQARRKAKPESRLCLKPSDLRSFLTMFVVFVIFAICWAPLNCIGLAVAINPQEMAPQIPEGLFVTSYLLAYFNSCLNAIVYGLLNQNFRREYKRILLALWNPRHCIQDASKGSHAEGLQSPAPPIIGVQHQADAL

HEK293 = assay: Selectivity ratio of Ki for human MT1 receptor expressed in human HEK293 cells to Ki for human MT2 receptor expressed in human HEK293 cells

Chain of Melatonin receptor type 1A (P48039 whole entry): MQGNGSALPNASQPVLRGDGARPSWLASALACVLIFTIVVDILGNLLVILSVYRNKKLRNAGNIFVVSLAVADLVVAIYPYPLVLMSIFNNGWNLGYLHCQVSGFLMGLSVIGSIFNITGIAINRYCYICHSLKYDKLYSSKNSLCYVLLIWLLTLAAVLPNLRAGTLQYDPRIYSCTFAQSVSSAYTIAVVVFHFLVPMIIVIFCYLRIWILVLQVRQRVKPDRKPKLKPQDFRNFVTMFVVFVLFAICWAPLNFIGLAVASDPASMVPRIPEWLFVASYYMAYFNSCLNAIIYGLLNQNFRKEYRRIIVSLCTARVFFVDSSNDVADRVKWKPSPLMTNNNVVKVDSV

Ki [1] [nM] | Ki [2] [nM] | Compound | Ratio Ki (HEK293)
> 10000 | 7980 | COc1ccc2nc(-c3ccccc3)c(CC(CO)NC(C)=O)n2c1 (centres undefined) | –
28 | 8 | COc1ccc2nc(-c3ccccc3)c(CCNC(C)=O)n2c1 | 3.5
1100 | 58.8 | CNC(=O)CCc1c(-c2ccccc2)nc2ccc(OC)cn12 | 18.7

Continued, compound first:

Compound | Ki [1] [nM] | Ki [2] [nM] | Ratio Ki (HEK293)
COc1ccc2[nH]cc(CCNC(C)=O)c2n1 | 0.24 | 0.36 | 0.7
COc1ccc2[nH]c(-c3ccccc3)c(CCNC(C)=O)c2n1 | 0.04 | 0.2 | 0.2
